# Test system: K562
# Experiment: In vitro cytotoxic concentration measured against human myelogenous leukemia K562 cells
# Assay type: functional, cell-based
row,Compound,IC50 [µM]
1,Cc1nc(O)c2cc(CSC(=S)N3CCN(c4ccc(F)cc4)CC3)ccc2n1,0.5
2,Cc1nc(O)c2cc(CS/C(S)=N/C3CCCCC3)ccc2n1,31
3,CCOC(=O)C1(c2ccccc2)CCN(C(=S)SCc2ccc3nc(C)nc(O)c3c2)CC1,8.7
4,Cc1nc(O)c2cc(CSC(=S)N3CCN(C(c4ccc(F)cc4)c4ccc(F)cc4)CC3)ccc2n1,4.3
5,Cc1nc(O)c2cc(CS/C(S)=N/C34CC5CC(CC(C5)C3)C4)ccc2n1,30.6
6,Cc1nc(O)c2cc(CS/C(S)=N/Cc3ccccc3)ccc2n1,4
7,Cc1nc(O)c2cc(CS/C(S)=N/CCCN(C)C)ccc2n1,25.6
8,Cc1nc(O)c2cc(CSC(=S)N3CCN(C)CC3)ccc2n1,10.8
9,Cc1nc(O)c2cc(CSC(=S)N3CCOCC3)ccc2n1,7.2
10,Cc1nc(O)c2cc(CSC(=S)N3CC(C)OC(C)C3)ccc2n1 (centres undefined),3.7
11,Cc1nc(O)c2cc(CS/C(S)=N/Cc3ccco3)ccc2n1,2.1
12,CCN(CC)C(=S)SCc1ccc2nc(C)nc(O)c2c1,4.4
13,CCOC(=O)C1CSCN1C(=S)SCc1ccc2nc(C)nc(O)c2c1 (centres undefined),11
14,Cc1nc(O)c2cc(CSC(=S)N3CCc4ccccc4C3)ccc2n1,3.3
15,Cc1nc(O)c2cc(CSC(=S)N3CCN(Cc4ccccc4)CC3)ccc2n1,7.4
16,Cc1nc(O)c2cc(CSC(=S)N3CCCCC3)ccc2n1,11.3
17,Cc1nc(O)c2cc(CSC(=S)N(C3CCCCC3)C3CCCCC3)ccc2n1,7.6
18,CSC(=S)NCc1c[nH]c2ccccc12 [BRASSININ],128
19,CN(Cc1cnc2nc(N)nc(N)c2n1)c1ccc(C(=O)N[C@@H](CCC(=O)O)C(=O)O)cc1 [METHOTREXATE],419

# — ChEMBL document CHEMBL1143510, “Synthesis and in vitro antitumor activity of 4(3H)-quinazolinone derivatives with dithiocarbamate side chains” (Bioorg Med Chem Lett, 2005)
